Data reported in US8518884B2, “Methods for treating atrial or ventricular arrhythmias by administering a G-protein alpha inhibitor” (Northwestern University, priority 2008, dated 2013).
Entries after “also recorded” stand apart in the source; their conditions may differ. Ends that are not written are not given here.

How the values were obtained:
[1] = test system: left atrium; assay: Functional studies in pacing-induced CHF and control canine subjects: left atrial ERPs under autonomic manipulation; format: in vivo; settings: both groups (CHF and control)
Description: Canine subjects were divided into three groups. In group 1, CHF was induced by rapid ventricular pacing for 4 weeks (i.e. when the animals began to develop clinical heart failure. In group 2, pacing was performed for only 3 weeks. Group three were control canine subjects not subjected to rapid ventricular pacing. At the end of follow up period, high-density epicardial mapping was performed in the PVs, the PLA and the LAA. ERPs were obtained at multiple sites under the following conditions: a) baseline (BSL), b) left cervical vagal stimulation at 20 Hz (VS), c) beta-stimulation with isoproterenol (ISO), d) beta-blockade with propranolol (PROP) and e) beta-blockade+vagal stimulation (P+VS). VS caused significant mean ERP shortening in all three groups. […] PROP increased the VS effect on ERP in normal controls, but produced an attenuation of this effect in the CHF group (SEE FIG. 37). In this CHF model, after 4 weeks of pacing, an increased vagal effect on atrial refractoriness, an increased cumulative sympathetic effect, and a change in the sympatho-vagal interactions of the left atrium were observed. After 3 weeks of pacing, there is pronounced autonomic remodeling, with evidence of P as well S nerve upregulation in the PVs and left atrium. Both P and S upregulation are more pronounced in the PLA (and to a lesser extent in the PVs) than in the rest of the left atrium. While vagal responsiveness in the left atrium is unaltered at 3 weeks of pacing, it increases after 4 weeks of pacing. […] The autonomic remodeling becomes more pronounced with increasing duration of pacing. […] The increase in β1 binding is consistent with the increase in sympathetic innervation. […] The P upregulation noted in the left atrium in CHF is a compensatory response to S upregulation that occurs in response to CHF. […] However, since normal atria are more densely innervated with vagal fibers (than the ventricle) and also contain a significant amount of IKAch, the compensatory response is likely to be more vigorous in the atrium. The compensatory increase in vagal innervations, and resulting increase in IKAch, may contribute to increased AF substrate.

[2] = test system: βAR-stimulated Gs activation; assay: β-adrenergic (ISO) modulation of Ca2+ transients in isolated canine left atrial myocytes; format: cell-based; settings: 1 μM ISO (βAR saturating); within 20-30 seconds
Source text: (§1) Cardiac myocytes were isolated from the canine left atrium, loaded with fluo-4 (fluorescent Ca^2+ indicator), and electrically field-stimulated. […] The effects can be summarized quantitatively (SEE FIG. 12B).

[3] = test system: Gαi; assay: cp-Gα peptide delivery to the PLA with electroporation/sonoporation: ERPs and AF inducibility with vagal stimulation; format: in vivo, canine
Description: High-density epicardial mapping was performed in the PVs (2×2 electrodes), the PLA (7×3 electrodes) and the left atrial appendage (LAA) (7×3 electrodes) of canine subjects. Effective refractory periods (ERPs) were obtained at baseline and in response left cervical vagal stimulation (VS) (20 Hz). Cp-Gαi2 peptide (200-330 nM) was then applied topically to the epicardial aspect of the PLA in a canine subgroup. Cp-Gαi3 peptide (200-330 nM) was then applied topically to the epicardial aspect of the PLA of a second subgroup. Electroporation was performed after the application of peptide to enhance intracellular delivery of the peptide. ERPs were then re-measured in the presence and absence of VS.
In canine subjects, high-density epicardial mapping was performed in the PVs (2×2 electrodes), the PLA (7×3 electrodes) and the left atrial appendage (LAA) (7×3 electrodes). Effective refractory periods (ERPs) were obtained at baseline and in response left cervical vagal stimulation (VS) (20 Hz). FLAG-tcp-Gα peptides (200 nM-3 μM of cp-Gαi1/2 (N=8 canine subjects), cp-Gαi3 (N=4 canine subjects), or random-sequence cp-GαoR peptide (N=3 canine subjects) were injected into the PLA epicardium of the canine subjects followed by either sonoporation or electroporation. In a subgroup of the canine subjects, sonoporation or electroporation alone was performed without introduction of cp-Gαi peptide. ERPs were then re-measured in the presence and absence of VS. In a separate set of control animals, ERPs were measured before and after the administration of systemic autonomic blockade with propranolol (0.2 mg/kg)+atropine (0.04 mg/kg).

[4] = test system: canine subject atrial cardiomyocytes; assay: Toxicity by rapid automated tetrazolium dye based assay (MTT); format: cell-based; settings: 5 μM peptide
[5] = test system: posterior left atrium (PLA); assay: Topical tropicaimide on the PLA: vagal stimulation (VS)-induced ERP shortening and AF inducibility; format: in vivo, canine
Description: P nerve fibers, and related muscarinic receptors, are preferentially located in the PLA and selective cholinergic blockade in the PLA can be successfully performed to alter vagal AF substrate. PLA, PVs and left atrial appendage (LAA) in canine subjects were immunostained for S nerves (dopamine beta-hydroxylase), P nerves (acetylcholine esterase), and M2 receptors. Epicardial electrophysiologic mapping was performed in 7 additional canine subjects. The PLA was the most richly innervated with nerve bundles containing P and S fibers (PV=0.9±1, PLA=3.2±2.5, LAA=0.17±0.3/cm^2; p<0.001); nerve bundles were located in fibrofatty tissue as well as in surrounding myocardium. P predominated over S fibers within bundles (P/S: PV=4.4, PLA=7.2, LAA=5.8). M2 distribution was also most pronounced in the PLA (M2 stained cells/cm^2: PLA=17.8±8.3, PV=14.3±7.3, LAA=14.5±8, p=0.012). A particularly high concentration of P fibers was found in the ligament of Marshall (in the PLA). The ligament of Marshall could be traced back to a major branch of the left cervical vagus nerve. The nerve in turn innervates the PVs and the rest of the PLA. The PLA surface is stained for acetylcholinesterase. […] A small nerve branch (N) originating in the LOM is seen to innervate the LSPV. […] Cholinergic nerves from the PLA fat pad (PFP) can be seen to innervate the LIPV. […] 1% tropicaimide was then applied topically to the PLA.
Using the canine model outlined below, 1% tropicaimide (a cholinergic blocker) was applied topically to the epicardial aspect of the PLA in canine subjects. Effective refractory periods were measured at multiple sites in the PLA a) at baseline, b) after left vagal stimulation, c) after tropicaimide application to the PLA and d) in the presence of vagal stimulation after tropicaimide application. […] The robust autonomic profile of the PLA and its role in AF (both in normal as well as diseased hearts), thereby making it an attractive target for autonomic manipulation by regional delivery of Gα C-terminal peptides. […]

[6] = test system: M2R-stimulated Gi activation; assay: Cholinergic (CCh) modulation of Ca2+ transients in isolated canine left atrial myocytes; format: cell-based
Source text: as §1

[7] = test system: Gαo1; assay: Gαo1 minigene in the PLA: vagal and CCh induced ERP shortening; format: in vivo, dog; settings: 10 mg minigene in PLA; day 3; compared to GαR dogs
Description: This Example describes the use of a Gαo1 inhibitor to treat arrhythmia is a subject. In one animal, the following was performed: • Day 1: Open-chest mapping was performed via a left lateral thoracotomy. 10 mg of minigene expressing Gαo1 peptide was then injected in the PLA, followed by electroporation. • Day 3: A left lateral thoracotomy was performed again. The left vagus nerve was isolated. ERPs were measured in the PLA, PV and LAA in the absence and presence of vagal stimulation. Data from the above animal was compared with other dogs that received other minigenes (i.e. Gαi2, Gαi2+Gαo1 and GαR (see Aistrup et al, Heart Rhythm 2011)

[8] = 200 nM-3 μM injected into PLA + sono/electroporation
[9] = during VS, after peptide delivery into PLA

## CC(C)NCC(O)c1ccc(O)c(O)c1 (stereo not shown) [ISO, isoproterenol]
[1]
  effect on mean ERP compared to PROP: significantly shortened
[2]
  effect on Ca2+ transients: appreciably augmented

## cp-Gαi peptide: cell-penetrating Gαi C-terminal peptide (cp-Gαi1/2 or cp-Gαi3), isoform not specified at the place (IKNNLKDCGLF; also: cell-penetrating sequence attached, not shown)
[3]; [8]
  VS-induced ERP shortening in the LAA: Elimination
  VS-induced ERP shortening in the PLA: eliminated
[3]; after peptide application
  ERP heterogeneity (coefficient of variation of all ERPs in PLA): no change
[3]; after peptide delivery to PLA
  AF inducibility in the presence of VS: significantly decreased
[3]; compared to vagal stimulation at baseline
  reduction in AF inducibility during VS: 69%
[3]; [9]
  AF episodes >5 seconds in duration induced: 10 episodes
  AF inducibility index: 0.05
[3]; with or without sono/electroporation
  atrial or ventricular arrhythmias induced by peptide injection: No atrial or ventricular arrhythmias were induced
[4]
  enhancement of cell viability: ~8%

## CCN(Cc1ccncc1)C(=O)C(CO)c1ccccc1 (stereo not shown) [tropicaimide]
[5]; 1% tropicaimide topically to PLA, PLA, PV and LAA
  VS-induced ERP shortening: significantly attenuated; also recorded: either entirely eliminated or at least significantly attenuated
[5]; 1% tropicaimide topically to PLA, vagal stimulation
  decrease in AF inducibility: 92%
[5]; after 1% tropicaimide to PLA, presence or absence of vagal stimulation
  AF induction with extrastimulus testing: could not induced

## cp-Gαi2: chimeric peptide: cell-penetrating poly-arginine N-terminal sequence and C-terminal last 11 residues of Gαi (IKNNLKDCGLF; also: cell-penetrating poly-arginine N-terminal sequence, length not given here)
[3]; 200-330 nM topical to PLA + electroporation, PLA, PV and LAA
  VS induced ERP shortening: significantly attenuated
[6]; 0.1-3 μM peptide superfusion 10-20 min, CCh
  attenuation of CCh effect on Ca2+ transients: significantly attenuate

## IANNLRGCGLY [Gαo1 minigene]
[7]
  CCh induced ERP shortening: significant reduction
  vagal induced ERP shortening: significant reduction

## C[N+](C)(C)CCOC(N)=O [CCh, carbachol, reference compound]
[6]; 10 μM CCh (M2R saturating), field-stimulated myocytes
  effect on cellular Ca2+ transients: nearly eliminated
